Calls of active or inactive are those of the source.
Columns and labels:
[1] = Fluorescence polarization-based biochemical high throughput dose response assay for activators of the Protein Kinase A-R1A (PKA-R1A) complex. [Related pubchem assays (depositor defined):AID504704, AID504707, AID504799, AID504800]
[2] = Fluorescence polarization-based biochemical high throughput dose response assay for activators of the Protein Kinase A-R2B (PKA-R2B) complex. [Related pubchem assays (depositor defined):AID504700, AID504704, AID504796, AID504797]
[3] = system: INS1; experiment: protection from cytokine-induced mitochondrial depolarization, dose response, cell-based, INS-1E, JC-1 fluorescence ratio, dry powder (AID 488931); format: functional; conditions: Rattus norvegicus
[4] = cells; format: functional, cell-based
[5] = target: Heat shock protein HSP 90-alpha (Homo sapiens, UniProt P07900); format: functional, organism-based
[6] = system: Streptococcus sp. 'group A'; experiment: growth inhibition of control SK(-) GAS strain, dose response, counter-screen for streptokinase expression inhibitor project, luminescence, kanamycin, BacTiterGlo, confirmation (AID 1900); format: functional, organism-based
[7] = inhibitors of SNCA 5'UTR-driven reporter translation, confirmation, H4 neuroglioma cells, luminescence (AID 1988); format: functional, cell-based
[8] = system: Streptococcus; experiment: Group A Streptococcus viability loss, dose response, counter-screen for streptokinase expression inhibitor project, luminescence, BacTiterGlo (AID 1915); format: functional, organism-based;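 note: potency for reduction of bacterial viability or growth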
[9] = target: Serine/threonine-protein phosphatase (Candida dubliniensis (strain CD36 / CBS 7987 / NCPF 3949 / NRRLY-17841) (Yeast), UniProt B9W6M3); experiment: calcineurin pathway inhibitors in yeast reporter, dose response, S. cerevisiae, CDRE-lacZ, luminescence, secondary (AID 2388); format: functional, cell-based;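 note: yeast reporter cells carrying a calcineurin-responsive lacZ construct stimulated with calcium chloride; luminescent beta-galactosidase reporter signal in whole cells rather than isolated phosphatase activity; potency for inhibition where a drop in reporter signal means calcineurin blockade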
[10] = target: T1, Streptokinase A (Streptococcus pyogenes serotype M1, UniProt P10520); experiment: S. pyogenes streptokinase expression inhibitors, potency, dose response, plasminogen activation absorbance, OD405 (AID 1914); format: functional, Streptococcus pyogenes M1 GAS;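 note: secreted streptokinase activity via plasminogen activation per viability signal from cell pellet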
T1 sequence (P10520 whole entry): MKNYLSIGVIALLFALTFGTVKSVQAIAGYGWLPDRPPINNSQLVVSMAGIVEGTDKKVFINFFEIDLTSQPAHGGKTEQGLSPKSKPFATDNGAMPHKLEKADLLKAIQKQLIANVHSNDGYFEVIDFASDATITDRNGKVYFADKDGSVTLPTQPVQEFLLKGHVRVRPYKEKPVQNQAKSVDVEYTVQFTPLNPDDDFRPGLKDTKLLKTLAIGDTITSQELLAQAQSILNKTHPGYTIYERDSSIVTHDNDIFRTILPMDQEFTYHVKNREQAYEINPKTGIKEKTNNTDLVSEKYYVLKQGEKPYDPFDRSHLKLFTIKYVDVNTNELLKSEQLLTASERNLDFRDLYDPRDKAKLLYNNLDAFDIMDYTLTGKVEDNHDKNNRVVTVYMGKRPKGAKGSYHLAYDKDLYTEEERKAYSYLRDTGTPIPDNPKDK

[11] = C. albicans growth with fluconazole, confirmation, fluorescence, retest (AID 2467); format: functional, cell-based
[12] = NIH-3T3 fibroblast cytotoxicity, dose response, cytotoxicity control, cell-based, fluorescence, Alamar Blue, secondary assay (AID 2327); format: functional;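 note: NIH-3T3 mouse fibroblasts cultured with fluconazole at 8 µg/mL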
[13] = target: ATP-dependent molecular chaperone HSP82 (Candida albicans (strain WO-1) (Yeast), UniProt C4YTQ8); experiment: loss of DOC-induced GRE-beta-galactosidase reporter signal, dose response, Hsp90 inhibitor project, S. cerevisiae, luminescence (AID 2400); format: functional, cell-based;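 note: beta-galactosidase luminescence from glucocorticoid response element reporter as proxy for Hsp90 function; inhibitor potency where signal loss means Hsp90 inhibition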
[14] = Luminescence Cell-Based Dose Response HTS to Identify Inhibitors of 5'UTR Stem-Loop Driven Prion Protein mRNA Translation in H4 Neuroglioblastoma Cells. [Related pubchem assays: 1827 (Project Summary), 1813 (Primary HTS)]; format: functional
[15] = system: HEK293; experiment: inhibitors of LMP1-driven NF-kB reporter, dose response, cell-based, HEK293, luciferase, cherry-pick (AID 588343); format: functional; conditions: Homo sapiens
[16] = target: T2, Rac GTPase-activating protein 1 (Homo sapiens, UniProt Q9H0H5); experiment: MgcRacGAP GTPase-activating activity inhibitors, confirmation, biochemical, ADP Hunter fluorescence, primary and confirmatory (AID 624330); format: functional
T2 sequence (Q9H0H5 whole entry): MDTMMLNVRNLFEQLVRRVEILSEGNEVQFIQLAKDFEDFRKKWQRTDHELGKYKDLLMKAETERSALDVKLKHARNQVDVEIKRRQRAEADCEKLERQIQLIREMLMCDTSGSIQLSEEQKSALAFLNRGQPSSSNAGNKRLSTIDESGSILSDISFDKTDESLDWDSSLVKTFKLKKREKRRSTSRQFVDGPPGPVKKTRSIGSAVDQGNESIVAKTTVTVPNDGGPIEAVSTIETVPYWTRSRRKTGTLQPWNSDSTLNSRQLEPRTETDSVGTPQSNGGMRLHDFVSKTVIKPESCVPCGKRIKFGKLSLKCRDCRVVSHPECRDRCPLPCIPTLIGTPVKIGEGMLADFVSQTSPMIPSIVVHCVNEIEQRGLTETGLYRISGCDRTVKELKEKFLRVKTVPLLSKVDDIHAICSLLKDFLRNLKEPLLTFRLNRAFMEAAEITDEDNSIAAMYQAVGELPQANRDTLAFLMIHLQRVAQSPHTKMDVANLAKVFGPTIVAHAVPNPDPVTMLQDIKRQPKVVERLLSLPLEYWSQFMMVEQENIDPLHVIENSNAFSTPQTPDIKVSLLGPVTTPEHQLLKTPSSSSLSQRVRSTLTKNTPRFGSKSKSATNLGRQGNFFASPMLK

[17] = inhibitors of firefly luciferase expression or activity, dose response, H4 neuroglioma cells, luminescence (AID 1990); format: functional, cell-based
[18] = system: INS1; experiment: beta cell apoptosis inhibitors, cytokine rescue, dose response, luminescence, retest (AID 449756); format: functional, cell-based; conditions: Rattus norvegicus;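 note: cell death triggered by IL-1 beta plus TNF-alpha plus IFN-gamma mixture; protective hits raise ATP signal compared with cytokine alone wells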
[19] = cells; format: functional, cell-based; remark: listed apart in the source
[20] = system: A-375; experiment: MITF: Counter assay: A375 proliferation Measured in Cell-Based System Using Plate Reader - 2084-03_Inhibitor_Dose_DryPowder_Activity. [Related pubchem assays (depositor defined):AID488944]; format: functional; conditions: Homo sapiens
[21] = control 3'UTR Renilla luciferase suppression, dose response, counter-screen for Shn3 inhibitor project, cell-based, Clone20-Shn3RL, cherry-picked (AID 624133); format: functional
[22] = THP-1 cell cytotoxicity, dose response, cytotoxicity control for non-replicating M. tuberculosis project (AID 489025); format: functional
[23] = cells; format: functional
[24] = system: CHO; experiment: cytotoxicity in TLR9-MyD88 CHO cells, dose response, cytotoxicity control for TLR9-MyD88 binding inhibitor project, cell-based, luminescence (AID 588339); format: functional, hamster; conditions: Cricetulus griseus;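 note: CHO cells stably coexpressing TLR9 and MyD88 fusions from primary screen; compound exposure lasted 48 hours before viability readout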
[25] = HepG2 cell cytotoxicity, dose response, cytotoxicity control for Shn3 inhibitor project, CellTiter-Glo, cherry-picked (AID 624134); format: functional, cell-based
[26] = Shn3 3'UTR reporter inhibitors, dose response, cell-based, Clone20 osteoblasts, firefly luciferase, cherry-picked (AID 624132); format: functional;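 note: firefly luciferase luminescence from reporter carrying the Shn3 3'UTR in osteoblasts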
[27] = target: T3, Microphthalmia-associated transcription factor (Homo sapiens, UniProt O75030); experiment: TRPM1 promoter luciferase signal decrease, dose response, MITF inhibitor project, cell-based, SK-MEL-5, cherry-picked, set 3 (AID 493073); format: functional
T3 sequence (O75030 whole entry): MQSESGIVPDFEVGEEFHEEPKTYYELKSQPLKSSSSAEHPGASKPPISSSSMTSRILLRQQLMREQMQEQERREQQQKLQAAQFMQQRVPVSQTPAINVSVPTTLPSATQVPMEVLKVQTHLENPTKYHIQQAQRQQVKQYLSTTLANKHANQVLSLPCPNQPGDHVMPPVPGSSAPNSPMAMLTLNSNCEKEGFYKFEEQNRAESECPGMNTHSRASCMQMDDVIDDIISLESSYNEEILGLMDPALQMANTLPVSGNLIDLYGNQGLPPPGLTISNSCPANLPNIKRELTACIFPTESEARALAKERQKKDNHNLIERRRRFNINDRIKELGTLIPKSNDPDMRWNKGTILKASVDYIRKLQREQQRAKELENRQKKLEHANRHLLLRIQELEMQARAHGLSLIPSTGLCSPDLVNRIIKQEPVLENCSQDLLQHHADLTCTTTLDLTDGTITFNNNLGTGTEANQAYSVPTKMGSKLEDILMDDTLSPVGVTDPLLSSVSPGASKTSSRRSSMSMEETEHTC

[28] = target: T4, Heat shock factor protein 1 (Mus musculus, UniProt P38532); experiment: HSF1 potentiators in luciferase reporter cells, confirmation, cell-based, NIH3T3, luminescence, dose retest (AID 435004); format: functional;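 note: stress induced by proteasome inhibitor MG132 added 30 min after compound; luciferase reporter driven by HSF1 response element in NIH3T3 cells; actives raise luminescence as potentiators of the MG132 stress response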
T4 sequence (P38532 whole entry): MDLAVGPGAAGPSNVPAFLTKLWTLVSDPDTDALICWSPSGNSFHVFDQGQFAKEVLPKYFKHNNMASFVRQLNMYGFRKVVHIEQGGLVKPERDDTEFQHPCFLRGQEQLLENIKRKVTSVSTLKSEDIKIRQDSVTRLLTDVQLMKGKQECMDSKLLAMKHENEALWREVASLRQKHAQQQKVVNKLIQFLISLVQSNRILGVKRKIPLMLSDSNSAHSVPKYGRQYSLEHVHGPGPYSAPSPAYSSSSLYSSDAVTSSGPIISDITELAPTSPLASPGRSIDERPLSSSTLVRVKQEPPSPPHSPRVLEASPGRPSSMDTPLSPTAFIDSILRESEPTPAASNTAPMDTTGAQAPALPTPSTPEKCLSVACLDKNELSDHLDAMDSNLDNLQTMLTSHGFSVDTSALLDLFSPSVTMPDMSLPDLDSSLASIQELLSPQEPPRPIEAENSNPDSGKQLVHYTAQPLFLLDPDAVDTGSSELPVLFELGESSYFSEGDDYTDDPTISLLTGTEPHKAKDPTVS

[29] = target: Beta Lactamase (Pseudomonas aeruginosa, UniProt Q932Y6); experiment: beta-lactamase reporter inhibitor potency, dose response, artefact control for TLR9-MyD88 binding inhibitor project, BLA reporter cells, FRET fluorescence (AID 588341); format: cell-based;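 note: cell based assay in CHO-K1 cells stably expressing beta-lactamase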
[30] = system: A-375; experiment: A375 melanoma cell viability reduction, dose response, counter-screen for MITF modulator project, cherry-pick samples, set 2 (AID 540335); format: functional, cell-based; conditions: Homo sapiens
[31] = system: HEK293; experiment: cells; format: functional, cell-based; conditions: Homo sapiens
[32] = target: Nuclear receptor subfamily 0 group B member 1 (Homo sapiens, UniProt P51843); experiment: Luminescence-based cell-based high throughput dose response assay for inhibitors of the orphan nuclear receptor subfamily 0, group B, member 1 (DAX1; NR0B1). [Related pubchem assays (depositor defined):AID504766, AID504790]; format: functional
Sequence of Nuclear receptor subfamily 0 group B member 1 (P51843 whole entry): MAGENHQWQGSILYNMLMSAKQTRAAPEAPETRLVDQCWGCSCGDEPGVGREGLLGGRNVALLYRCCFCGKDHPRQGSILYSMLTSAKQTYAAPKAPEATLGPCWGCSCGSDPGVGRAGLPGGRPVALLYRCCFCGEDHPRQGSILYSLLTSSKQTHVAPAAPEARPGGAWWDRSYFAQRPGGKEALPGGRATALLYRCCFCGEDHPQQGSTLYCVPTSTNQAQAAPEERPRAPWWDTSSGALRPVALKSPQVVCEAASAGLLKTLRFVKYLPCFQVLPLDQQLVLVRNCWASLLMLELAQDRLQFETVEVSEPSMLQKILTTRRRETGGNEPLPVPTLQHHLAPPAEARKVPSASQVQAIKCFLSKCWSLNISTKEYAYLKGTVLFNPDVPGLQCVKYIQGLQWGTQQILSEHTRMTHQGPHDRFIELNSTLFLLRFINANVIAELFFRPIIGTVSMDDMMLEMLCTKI

Sequence of ATP-dependent molecular chaperone HSP82 (C4YTQ8 whole entry): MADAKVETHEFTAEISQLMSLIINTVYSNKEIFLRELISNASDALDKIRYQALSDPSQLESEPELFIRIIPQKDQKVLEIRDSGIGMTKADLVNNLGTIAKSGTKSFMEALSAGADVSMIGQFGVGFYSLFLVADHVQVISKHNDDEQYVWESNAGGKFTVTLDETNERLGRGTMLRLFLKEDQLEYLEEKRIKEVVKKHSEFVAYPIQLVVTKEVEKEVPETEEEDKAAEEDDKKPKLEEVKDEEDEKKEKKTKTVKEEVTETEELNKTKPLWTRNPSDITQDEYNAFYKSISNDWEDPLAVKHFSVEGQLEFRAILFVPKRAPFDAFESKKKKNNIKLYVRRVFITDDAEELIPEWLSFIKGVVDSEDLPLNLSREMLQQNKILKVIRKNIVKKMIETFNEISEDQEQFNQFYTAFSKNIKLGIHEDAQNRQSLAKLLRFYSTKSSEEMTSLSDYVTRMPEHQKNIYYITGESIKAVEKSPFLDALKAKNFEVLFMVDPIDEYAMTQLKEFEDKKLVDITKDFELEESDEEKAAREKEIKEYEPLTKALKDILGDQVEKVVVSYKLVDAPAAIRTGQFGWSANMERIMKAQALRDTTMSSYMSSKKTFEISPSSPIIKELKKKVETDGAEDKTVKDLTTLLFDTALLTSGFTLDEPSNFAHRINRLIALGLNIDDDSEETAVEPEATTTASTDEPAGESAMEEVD
Sequence of Serine/threonine-protein phosphatase (B9W6M3 whole entry): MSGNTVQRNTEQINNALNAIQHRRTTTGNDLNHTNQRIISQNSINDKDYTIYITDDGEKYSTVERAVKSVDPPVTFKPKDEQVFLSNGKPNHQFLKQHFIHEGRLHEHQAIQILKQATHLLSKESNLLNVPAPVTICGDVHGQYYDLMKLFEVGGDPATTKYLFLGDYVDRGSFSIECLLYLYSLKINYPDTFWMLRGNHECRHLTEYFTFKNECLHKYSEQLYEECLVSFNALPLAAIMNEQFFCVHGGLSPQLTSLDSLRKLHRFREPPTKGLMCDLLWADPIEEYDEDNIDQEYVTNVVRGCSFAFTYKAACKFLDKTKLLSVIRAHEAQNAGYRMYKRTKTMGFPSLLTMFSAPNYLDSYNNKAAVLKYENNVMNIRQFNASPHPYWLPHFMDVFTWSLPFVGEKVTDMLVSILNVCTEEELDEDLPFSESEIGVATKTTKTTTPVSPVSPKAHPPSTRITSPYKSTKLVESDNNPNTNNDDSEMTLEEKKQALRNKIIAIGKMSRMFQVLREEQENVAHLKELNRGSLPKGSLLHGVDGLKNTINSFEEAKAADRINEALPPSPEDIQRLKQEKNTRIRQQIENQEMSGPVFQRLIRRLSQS
Sequence of Beta Lactamase (Q932Y6 whole entry): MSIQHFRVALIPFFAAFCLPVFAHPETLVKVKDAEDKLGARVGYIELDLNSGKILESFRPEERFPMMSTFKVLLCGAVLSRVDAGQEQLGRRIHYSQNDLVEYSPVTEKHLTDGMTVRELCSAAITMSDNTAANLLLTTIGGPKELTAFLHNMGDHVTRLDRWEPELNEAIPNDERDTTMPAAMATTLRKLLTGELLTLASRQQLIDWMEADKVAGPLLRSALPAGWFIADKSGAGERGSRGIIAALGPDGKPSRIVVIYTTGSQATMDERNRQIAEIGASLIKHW

CCCC(=O)Nc1ncnc2c1ncn2[C@@H]1O[C@@H]2COP(=O)(O)O[C@H]2[C@H]1OC(=O)CCC
active: EC50 [1] 4.48 µM | EC50 [2] 5.38 µM

C[C@@H]1CN([C@@H](C)CO)C(=O)c2cccc(NC(=O)Nc3cccc4ccccc34)c2O[C@H]1CN(C)S(C)(=O)=O
inactive: AC50 [3] > 195 µM

O=C(N/N=C/c1sc2ccccc2c1O)c1cccc2ccccc12
> 150 µM (not active): EC50 [10]
> 350 µM (not active): EC50 [4]
inactive: EC50 [9] > 180 µM | EC50 [12] > 160 µM
active: AC50 [5] 14 µM | EC50 [6] 3.44 µM | EC50 [7] 9 µM | EC50 [8] 12.4 µM | EC50 [11] 0.738 µM | EC50 [13] 9.14 µM | EC50 [14] 10.4 µM | AC50 [15] 5.14 µM | IC50 [16] 52.9 µM | EC50 [17] 10.6 µM | AC50 [18] 1.1 µM | EC50 [19] 12.5 µM

CCOC(=O)COc1ccc2ccccc2c1/C=C/[N+](=O)[O-]
inconclusive: EC50 [28] 3.33 µM
inactive: IC50 [29] 30.5 µM | AC50 [18] > 60 µM
active: AC50 [20] > 35 µM | AC50 [21] 12.9 µM | AC50 [5] 4.28 µM | CC50 [22] 19.1 µM | IC50 [23] 2.81 µM | IC50 [24] 2.72 µM | AC50 [25] 20.9 µM | AC50 [26] 5.2 µM | AC50 [27] 8.17 µM | AC50 [30] > 35 µM

Cc1cnc(C(=O)OCC(=O)NCCCc2ccccc2)cn1
inactive: IC50 [31] > 67.5 µM | IC50 [32] > 67.5 µM
